# Values of other authors in patent US20230257337A1, “METHOD FOR PRODUCING POLYGYLCEROL ESTERS OF POLYCARBOXYLIC ACIDS ESTERIFIED WITH OXOBUTANOL” (IOI Oleo GmbH, priority 2020, published 2023).
# Settings: even if several grams are taken
structure (smiles),measurement,value
CC(O)CC(=O)O (stereo not shown) [3-hydroxybutyric acid],duration of ketosis,about three to four
